Results as given in ChEMBL document CHEMBL1147635, “KMI-358 and KMI-370, highly potent and small-sized BACE1 inhibitors containing phenylnorstatine” (Bioorg Med Chem Lett, 2004).
*1 amine or outer side, *2 acyl side, *3 side chain or, on linkers, in order; H or OH if unused. Where a SMILES comes first, the peptide text is derived from it. [ ]: non-standard residue; d: D form. β3hPhe(2R-OH) = O=C([C@H](O)[C@H](Cc1ccccc1)N[*:1])[*:2]; Dap = NC[C@H](N)C(=O)O; CO = O=C([*:1])[*:2]

molecular target: T1, Beta-secretase 1 (Homo sapiens, UniProt P56817); test: Inhibition of Beta-secretase 1 at 2 uM concentration
T1 sequence (P56817 whole entry): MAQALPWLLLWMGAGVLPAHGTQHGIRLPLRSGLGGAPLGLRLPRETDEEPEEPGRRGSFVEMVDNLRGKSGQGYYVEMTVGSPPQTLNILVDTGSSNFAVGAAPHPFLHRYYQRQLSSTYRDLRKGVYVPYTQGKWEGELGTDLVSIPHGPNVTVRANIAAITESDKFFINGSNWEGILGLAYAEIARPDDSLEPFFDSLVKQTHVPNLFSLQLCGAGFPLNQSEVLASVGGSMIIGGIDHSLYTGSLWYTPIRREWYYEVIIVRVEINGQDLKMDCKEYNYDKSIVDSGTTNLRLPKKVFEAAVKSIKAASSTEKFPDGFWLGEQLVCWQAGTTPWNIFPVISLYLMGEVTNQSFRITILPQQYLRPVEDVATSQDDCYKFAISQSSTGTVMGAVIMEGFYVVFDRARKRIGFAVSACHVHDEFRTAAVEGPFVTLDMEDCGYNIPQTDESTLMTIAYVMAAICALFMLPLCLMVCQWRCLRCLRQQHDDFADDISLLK

inhibition	SMILES
65%	CC(C)C[C@H](NC(=O)[C@@H](NC(=O)[C@@H](N)CCC(=O)O)C(C)C)C(=O)N[C@@H](Cc1ccccc1)[C@@H](O)C(=O)N[C@@H](CC(=O)O)C(=O)N[C@@H](C)C(=O)N[C@@H](CCC(=O)O)C(=O)NCC(=O)O (HELM PEPTIDE1{E.V.L.[O=C([C@H](O)[C@H](Cc1ccccc1)N[*:1])[*:2]].D.A.E.G}$$$$V2.0)
< 20%	CC(C)C[C@H](NC(=O)[C@@H](NC(=O)[C@@H](N)CCC(N)=O)C(C)C)C(=O)N[C@@H](Cc1ccccc1)[C@@H](O)C(=O)N[C@@H](CC(=O)O)C(=O)N[C@@H](C)C(=O)N[C@@H](CCC(=O)O)C(=O)O (HELM PEPTIDE1{Q.V.L.[O=C([C@H](O)[C@H](Cc1ccccc1)N[*:1])[*:2]].D.A.E}$$$$V2.0)
> 90%	CC(C)C[C@H](NC(=O)[C@@H](NC(=O)[C@@H](N)CNC(=O)O)C(C)C)C(=O)N[C@@H](Cc1ccccc1)[C@@H](O)C(=O)N[C@@H](CC(=O)O)C(=O)N[C@@H](C)C(=O)N[C@@H](CCC(=O)O)C(=O)O (H-[Dap](CO)VL[β3hPhe(2R-OH)]DAE-OH)
< 90%	CC(C)C[C@H](NC(=O)[C@@H](NC(=O)[C@@H](N)CCC(=O)O)C(C)C)C(=O)N[C@@H](Cc1ccccc1)[C@@H](O)C(=O)N[C@@H](CC(=O)O)C(=O)N[C@@H](C)C(=O)N[C@@H](CCC(=O)O)C(=O)N[C@@H](Cc1ccccc1)C(=O)O (HELM PEPTIDE1{E.V.L.[O=C([C@H](O)[C@H](Cc1ccccc1)N[*:1])[*:2]].D.A.E.F}$$$$V2.0)
60%	CC(C)C[C@H](NC(=O)[C@@H](NC(=O)[C@@H](N)CCC(=O)O)C(C)C)C(=O)N[C@@H](Cc1ccccc1)[C@@H](O)C(=O)N[C@@H](CC(=O)O)C(=O)N[C@@H](C)C(=O)N[C@@H](CCC(=O)O)C(=O)O (HELM PEPTIDE1{E.V.L.[O=C([C@H](O)[C@H](Cc1ccccc1)N[*:1])[*:2]].D.A.E}$$$$V2.0)
< 20%	CC(C)C[C@H](NC(=O)[C@@H](NC(=O)[C@@H](N)CC(=O)O)C(C)C)C(=O)N[C@@H](Cc1ccccc1)[C@@H](O)C(=O)N[C@@H](CC(=O)O)C(=O)N[C@@H](C)C(=O)N[C@@H](CCC(=O)O)C(=O)O (HELM PEPTIDE1{D.V.L.[O=C([C@H](O)[C@H](Cc1ccccc1)N[*:1])[*:2]].D.A.E}$$$$V2.0)
56%	CC(C)C[C@H](NC(=O)[C@@H](NC(=O)[C@@H](N)CCC(=O)O)C(C)C)C(=O)N[C@@H](Cc1ccccc1)[C@@H](O)C(=O)N[C@@H](CC(=O)O)C(=O)NC(C)C(=O)NCC(=O)N[C@@H](Cc1ccccc1)C(=O)O (single isomer, unassigned)
46%	CC(C)C[C@H](NC(=O)[C@@H](NC(=O)[C@@H](N)CCC(=O)O)C(C)C)C(=O)N[C@@H](Cc1ccccc1)[C@@H](O)C(=O)N[C@@H](CC(=O)O)C(=O)N[C@@H](C)C(=O)O (HELM PEPTIDE1{E.V.L.[O=C([C@H](O)[C@H](Cc1ccccc1)N[*:1])[*:2]].D.A}$$$$V2.0)
54%	CC(C)C[C@H](NC(=O)[C@@H](NC(=O)[C@@H](N)CCC(=O)O)C(C)C)C(=O)N[C@@H](Cc1ccccc1)[C@@H](O)C(=O)NCC(=O)N[C@@H](C)C(=O)N[C@@H](CCC(=O)O)C(=O)N[C@@H](Cc1ccccc1)C(=O)O (HELM PEPTIDE1{E.V.L.[O=C([C@H](O)[C@H](Cc1ccccc1)N[*:1])[*:2]].G.A.E.F}$$$$V2.0)
43%	CC(C)C[C@H](NC(=O)[C@@H](NC(=O)[C@@H](N)CCCC(=O)O)C(C)C)C(=O)N[C@@H](Cc1ccccc1)[C@@H](O)C(=O)N[C@@H](CC(=O)O)C(=O)N[C@@H](C)C(=O)N[C@@H](CCC(=O)O)C(=O)O (HELM PEPTIDE1{[N[C@@H](CCCC(=O)O)C(=O)[*:2]].V.L.[O=C([C@H](O)[C@H](Cc1ccccc1)N[*:1])[*:2]].D.A.E}$$$$V2.0)
< 20%	CC(C)C[C@H](NC(=O)[C@@H](NC(=O)CCCC(=O)O)C(C)C)C(=O)N[C@@H](Cc1ccccc1)[C@@H](O)C(=O)N[C@@H](CC(=O)O)C(=O)N[C@@H](C)C(=O)N[C@@H](CCC(=O)O)C(=O)O (HELM PEPTIDE1{[O=C(O)CCCC(=O)[*:2]].V.L.[O=C([C@H](O)[C@H](Cc1ccccc1)N[*:1])[*:2]].D.A.E}$$$$V2.0)
< 20%	CC(C)C[C@H](NC(=O)[C@@H](NC(=O)CN)C(C)C)C(=O)N[C@@H](Cc1ccccc1)[C@@H](O)C(=O)N[C@@H](CC(=O)O)C(=O)N[C@@H](C)C(=O)N[C@@H](CCC(=O)O)C(=O)N[C@@H](Cc1ccccc1)C(=O)O (HELM PEPTIDE1{G.V.L.[O=C([C@H](O)[C@H](Cc1ccccc1)N[*:1])[*:2]].D.A.E.F}$$$$V2.0)

Continued, compound first:

SMILES	inhibition
CC(C)C[C@H](NC(=O)[C@@H](NC(=O)[C@@H](N)CCC(=O)O)C(C)C)C(=O)N[C@@H](Cc1ccccc1)[C@@H](O)C(=O)N[C@@H](CC(=O)O)C(=O)NCC(=O)N[C@@H](CCC(=O)O)C(=O)N[C@@H](Cc1ccccc1)C(=O)O (HELM PEPTIDE1{E.V.L.[O=C([C@H](O)[C@H](Cc1ccccc1)N[*:1])[*:2]].D.G.E.F}$$$$V2.0)	73%
CC(C)C[C@H](NC(=O)CNC(=O)[C@@H](N)CCC(=O)O)C(=O)N[C@@H](Cc1ccccc1)C(O)C(=O)N[C@@H](CC(=O)O)C(=O)NC(C)C(=O)N[C@@H](CCC(=O)O)C(=O)N[C@@H](Cc1ccccc1)C(=O)O (single isomer, unassigned)	< 20%
CC(C)C[C@H](NC(=O)[C@@H](NC(=O)[C@@H](N)CCC(=O)O)C(C)C)C(=O)N[C@@H](Cc1ccccc1)[C@@H](O)C(=O)Nc1cc(C(=O)O)cc(C(=O)O)c1	> 90%
CC(C)[C@H](NC(=O)[C@@H](N)CCC(=O)O)C(=O)NCC(=O)N[C@@H](Cc1ccccc1)[C@@H](O)C(=O)N[C@@H](CC(=O)O)C(=O)N[C@@H](C)C(=O)N[C@@H](CCC(=O)O)C(=O)N[C@@H](Cc1ccccc1)C(=O)O (HELM PEPTIDE1{E.V.G.[O=C([C@H](O)[C@H](Cc1ccccc1)N[*:1])[*:2]].D.A.E.F}$$$$V2.0)	< 20%
CC(C)C[C@H](NC(=O)[C@@H](NC(=O)[C@@H](N)CCC(=O)O)C(C)C)C(=O)N[C@@H](Cc1ccccc1)[C@@H](O)C(=O)NCc1cccc(C(=O)O)c1	64%
CC(C)C[C@H](NC(=O)[C@@H](NC(=O)[C@@H](N)CCC(=O)O)C(C)C)C(=O)N[C@@H](Cc1ccccc1)[C@@H](O)C(=O)N[C@@H](CC(=O)O)C(=O)O (HELM PEPTIDE1{E.V.L.[O=C([C@H](O)[C@H](Cc1ccccc1)N[*:1])[*:2]].D}$$$$V2.0)	61%
CC(C)C[C@H](NC(=O)[C@@H](NC(=O)[C@@H](N)CCC(=O)O)C(C)C)C(=O)N[C@@H](Cc1ccccc1)[C@@H](O)C(=O)Nc1ccc(C(=O)O)cc1	79%
CC(C)C[C@H](NC(=O)[C@@H](NC(=O)[C@@H](N)CCC(=O)O)C(C)C)C(=O)N[C@@H](Cc1ccccc1)[C@@H](O)C(=O)NCc1ccccc1	30%
CC(C)C[C@H](NC(=O)[C@@H](NC(=O)[C@@H](N)CCC(=O)O)C(C)C)C(=O)N[C@@H](Cc1ccccc1)[C@@H](O)C(=O)NCc1ccc(C(=O)O)cc1	52%
CC(C)C[C@H](NC(=O)[C@@H](NC(=O)[C@@H](N)CCC(=O)O)C(C)C)C(=O)N[C@@H](Cc1ccccc1)[C@@H](O)C(=O)O (mixture of isomers)	34%
C[C@H](NC(=O)[C@H](CC(=O)O)NC(=O)[C@H](O)[C@@H](N)Cc1ccccc1)C(=O)N[C@@H](CCC(=O)O)C(=O)N[C@@H](Cc1ccccc1)C(=O)O (HELM PEPTIDE1{[N[C@@H](Cc1ccccc1)[C@@H](O)C(=O)[*:2]].D.A.E.F}$$$$V2.0)	< 20%
CC(C)C[C@H](NC(=O)[C@@H](NC(=O)[C@@H](N)CCC(=O)O)C(C)C)C(=O)N[C@@H](Cc1ccccc1)[C@@H](O)C(=O)Nc1cccc(C(=O)O)c1 (mixture of isomers)	82%
CC(C)C[C@H](N)C(=O)N[C@@H](Cc1ccccc1)[C@@H](O)C(=O)N[C@@H](CC(=O)O)C(=O)N[C@@H](C)C(=O)N[C@@H](CCC(=O)O)C(=O)N[C@@H](Cc1ccccc1)C(=O)O (HELM PEPTIDE1{L.[O=C([C@H](O)[C@H](Cc1ccccc1)N[*:1])[*:2]].D.A.E.F}$$$$V2.0)	< 20%
CC(C)C[C@H](NC(=O)[C@@H](N)C(C)C)C(=O)N[C@@H](Cc1ccccc1)[C@@H](O)C(=O)N[C@@H](CC(=O)O)C(=O)N[C@@H](C)C(=O)N[C@@H](CCC(=O)O)C(=O)N[C@@H](Cc1ccccc1)C(=O)O (HELM PEPTIDE1{V.L.[O=C([C@H](O)[C@H](Cc1ccccc1)N[*:1])[*:2]].D.A.E.F}$$$$V2.0)	< 20%

molecular target: T1, Beta-secretase 1; test: Inhibitory concentration of compound against Beta-secretase 1 was evaluated

SMILES	IC50
CC(C)C[C@H](NC(=O)[C@@H](NC(=O)[C@@H](N)CCC(=O)O)C(C)C)C(=O)N[C@@H](Cc1ccccc1)[C@@H](O)C(=O)Nc1cc(C(=O)O)cc(C(=O)O)c1	55 nM
CC(C)C[C@H](NC(=O)[C@@H](NC(=O)[C@@H](N)CNC(=O)O)C(C)C)C(=O)N[C@@H](Cc1ccccc1)[C@@H](O)C(=O)N[C@@H](CC(=O)O)C(=O)N[C@@H](C)C(=O)N[C@@H](CCC(=O)O)C(=O)O (H-[Dap](CO)VL[β3hPhe(2R-OH)]DAE-OH)	84 nM
CC(C)C[C@H](NC(=O)[C@@H](NC(=O)[C@@H](N)CNC(=O)O)C(C)C)C(=O)N[C@@H](Cc1ccccc1)[C@@H](O)C(=O)Nc1cccc(C(=O)O)c1	16 nM
CC(C)C[C@H](NC(=O)[C@@H](NC(=O)[C@@H](N)CNC(=O)O)C(C)C)C(=O)N[C@@H](Cc1ccccc1)[C@@H](O)C(=O)Nc1cc(C(=O)O)cc(C(=O)O)c1	3.4 nM
